A short description of one series: physchem. The conditions noted are these: buffer, pH 7.4.
Another series can be described thus: in vitro. As to conditions: human, Caco-2.

Molecules are shown by their SMILES.

In ChEMBL document CHEMBL4715870, “Synthesis and Structure-Activity Relationship of Tetra-Substituted Cyclohexyl Diol Inhibitors of Proviral Insertion of Moloney Virus (PIM) Kinases” (J Med Chem, 2020) one finds logD and Papp A→B data, which are given here for two compounds.

The logD is lipophilicity at a set pH, counting ionised and neutral species. Usually Papp A→B stands for how fast a substance crosses the layer from the apical side. Low readings indicate slow passage, high ones fast passage.

The compound `C[C@H]1C[C@@H](c2ccncc2NC(=O)c2ccc(F)c(-c3c(F)cccc3F)n2)C[C@@H](O)[C@@H]1O` yielded a logD in the series “physchem” of 3. Moreover, the Papp A→B in “in vitro” is 28.8 ×10⁻⁶ cm/s.
As for `C[C@@H]1C[C@H](N)C[C@H](c2ccncc2NC(=O)c2ccc(F)c(-c3c(F)cccc3F)n2)C1` [LGH-447], in the series “physchem”, the logD was 1.9. The compound also had a Papp A→B in “in vitro” of 8.5 ×10⁻⁶ cm/s.
